One assay has as its target PARG (Homo sapiens, UniProt Q86W56). As to the kind of experiment: Biochemical assay (PARG, TFMU-ADPr substrate). The settings on record: PARG, TFMU-ADPr substrate.
Another assay has as its system HCC1806. Kind of assay: Cell viability assay (CellTiter-Glo). The class given is cell-based, Human. The settings on record: Homo sapiens, HCC1806, 168 h, HCC1806, 7 days, CellTiter-Glo; read-out: IC50 (nM) in cell viability assay.

22 compounds from patent publication US20260258035A1, “FIVE-MEMBERED AND SIX-MEMBERED NITROGEN-CONTAINING COMPOUND, AND INTERMEDIATE, PREPARATION METHOD AND USE THEREOF” (HANGZHOU SYNRX THERAPEUTICS BIOMEDICAL TECHNOLOGY CO., LTD., priority 2022, published 2026) can be followed below.

PARG, sequence (Q86W56 whole entry): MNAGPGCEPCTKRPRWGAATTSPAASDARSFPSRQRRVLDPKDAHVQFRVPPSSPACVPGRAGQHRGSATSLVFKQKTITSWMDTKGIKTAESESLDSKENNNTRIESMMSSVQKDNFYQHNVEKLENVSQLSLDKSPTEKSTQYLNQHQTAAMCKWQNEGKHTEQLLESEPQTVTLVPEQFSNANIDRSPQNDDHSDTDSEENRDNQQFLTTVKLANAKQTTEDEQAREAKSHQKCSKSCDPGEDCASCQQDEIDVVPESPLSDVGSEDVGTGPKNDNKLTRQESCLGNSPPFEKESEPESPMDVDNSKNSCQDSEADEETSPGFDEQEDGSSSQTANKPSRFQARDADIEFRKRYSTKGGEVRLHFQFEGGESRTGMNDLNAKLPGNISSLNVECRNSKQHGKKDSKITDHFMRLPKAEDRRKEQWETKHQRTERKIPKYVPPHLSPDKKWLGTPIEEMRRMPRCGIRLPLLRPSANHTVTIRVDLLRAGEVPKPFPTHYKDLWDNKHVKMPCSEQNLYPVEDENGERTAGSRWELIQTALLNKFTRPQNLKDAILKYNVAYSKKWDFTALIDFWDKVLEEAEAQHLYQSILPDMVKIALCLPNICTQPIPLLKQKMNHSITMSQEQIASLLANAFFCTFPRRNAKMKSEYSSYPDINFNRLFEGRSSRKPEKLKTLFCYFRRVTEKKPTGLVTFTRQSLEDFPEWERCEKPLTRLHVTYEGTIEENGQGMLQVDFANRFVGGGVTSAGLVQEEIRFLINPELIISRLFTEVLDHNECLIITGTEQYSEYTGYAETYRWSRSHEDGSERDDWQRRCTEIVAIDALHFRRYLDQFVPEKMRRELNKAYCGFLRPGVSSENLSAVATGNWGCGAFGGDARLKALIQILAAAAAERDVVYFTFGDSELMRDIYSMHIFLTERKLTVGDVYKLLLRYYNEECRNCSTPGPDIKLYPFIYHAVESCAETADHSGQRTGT

Broadly, the IC50 is the concentration at which inhibition is half-maximal. `COC1(C(=O)N2CCN(c3cc(S(=O)(=O)NC4(C#N)CC4)cn4c(-c5nnc(C(F)(F)F)s5)ncc34)CC2)CC1` [Example 228, N-(1-cyanocyclopropyl)-8-(4-(1-methoxycyclopropane-1-carbonyl)piperazin-1-yl)-3-(5-(trifluoromethyl)-1,3,4-thiadiazol-2-yl)imidazo[1,5-a]pyridine-6-sulfonamide]: the IC50 at PARG was 0.38 nM; in the assay with HCC1806, 107 nM.
`N#CC1(NS(=O)(=O)c2cc(N3CCN(C(=O)N4CCCC4)CC3)c3cnc(-c4nnc(C(F)(F)F)s4)n3c2)CC1` [Example 229, N-(1-cyanocyclopropyl)-8-(4-(pyrrolidine-1-carbonyl)piperazin-1-yl)-3-(5-(trifluoromethyl)-1,3,4-thiadiazol-2-yl)imidazo[1,5-a]pyridine-6-sulfonamide]: the half-inhibitory concentration (IC50) against PARG was found to be 3.31 nM; in the assay with HCC1806, 800 nM.
As for `N#CC1(NS(=O)(=O)c2cc(N3CC[C@@H](O)C3)c3cnc(-c4nnc(C(F)(F)F)s4)n3c2)CC1` [Example 230, (R)-N-(1-cyanocyclopropyl)-8-(3-hydroxypyrrolidin-1-yl)-3-(5-(trifluoromethyl)-1,3,4-thiadiazol-2-yl)imidazo[1,5-a]pyridine-6-sulfonamide], the IC50 against PARG was 120 nM; in the assay on HCC1806 it was 8000 nM.
For the compound `N#CC1(NS(=O)(=O)c2cc(N3CCN(C(=O)C(O)C(F)(F)F)CC3)c3cnc(-c4nnc(C(F)(F)F)s4)n3c2)CC1` (centres unmarked) [Example 231, N-(1-cyanocyclopropyl)-8-(4-(3,3,3-trifluoro-2-hydroxypropanoyl)piperazin-1-yl)-3-(5-(trifluoromethyl)-1,3,4-thiadiazol-2-yl)imidazo[1,5-a]pyridine-6-sulfonamide], the values for the IC50 against PARG and with HCC1806 were 8.32 nM and 500 nM, respectively.
For `N#CC1(NS(=O)(=O)c2ccc3c(C4=CC5(CC4)CN(C(=O)C4CC4(F)F)C5)nc(-c4nnc(C(F)(F)F)s4)n3c2)CC1` (centres unmarked) [Example 232, N-(1-cyanocyclopropyl)-1-(2-(2,2-difluorocyclopropane-1-carbonyl)-2-azaspiro[3.4]oct-5-en-6-yl)-3-(5-(trifluoromethyl)-1,3,4-thiadiazol-2-yl)imidazo[1,5-a]pyridine-6-sulfonamide], the figures for the IC50 against PARG and in the assay on HCC1806 were 31.6 nM and 953 nM, respectively.
Take `N#CC1(NS(=O)(=O)c2cc(N3CCNCC3)c3cnc(-c4nnc(C(F)(F)F)s4)n3c2)CC1` [Example 233, N-(1-cyanocyclopropyl)-8-(piperazin-1-yl)-3-(5-(trifluoromethyl)-1,3,4-thiadiazol-2-yl)imidazo[1,5-a]pyridine-6-sulfonamide]: the results for the IC50 against PARG and with HCC1806 were 45.7 nM and 3000 nM, respectively.
Take `CC(C)OC(=O)N1CCN(c2cc(S(=O)(=O)NC3(C#N)CC3)cn3c(-c4nnc(C(F)(F)F)s4)ncc23)CC1` [Example 234, isopropyl 4-(6-(N-(1-cyanocyclopropyl)sulfamoyl)-3-(5-(trifluoromethyl)-1,3,4-thiadiazol-2-yl)imidazo[1,5-a]pyridin-8-yl)piperazine-1-carboxylate]: the IC50 is 13.2 nM on PARG and 4000 nM in the assay on HCC1806.
Regarding `N#CC1(NS(=O)(=O)c2cc(N3CCN(C(=O)c4ccn[nH]4)CC3)c3cnc(-c4nnc(C(F)(F)F)s4)n3c2)CC1` [Example 235, 8-(4-(1H-pyrazole-5-carbonyl)piperazin-1-yl)-N-(1-cyanocyclopropyl)-3-(5-(trifluoromethyl)-1,3,4-thiadiazol-2-yl)imidazo[1,5-a]pyridine-6-sulfonamide], the IC50 is 4.37 nM at PARG and 4940 nM with HCC1806.
In the case of `N#CC1(NS(=O)(=O)c2cc(N3CCN(C(=O)C4(O)CC4)CC3)c3cnc(-c4nnc(C(F)(F)F)s4)n3c2)CC1` [Example 237, N-(1-cyanocyclopropyl)-8-(4-(1-hydroxycyclopropane-1-carbonyl)piperazin-1-yl)-3-(5-(trifluoromethyl)-1,3,4-thiadiazol-2-yl)imidazo[1,5-a]pyridine-6-sulfonamide], the IC50 amounted to 2.88 nM at PARG and 4390 nM with HCC1806.
Turning to `Cn1ccnc1N1CCN(c2cc(S(=O)(=O)NC3(C#N)CC3)cn3c(-c4nnc(C(F)(F)F)s4)ncc23)CC1` [Example 238, N-(1-cyanocyclopropyl)-8-(4-(1-methyl-1H-imidazol-2-yl)piperazin-1-yl)-3-(5-(trifluoromethyl)-1,3,4-thiadiazol-2-yl)imidazo[1,5-a]pyridine-6-sulfonamide], the IC50 at PARG stood at 38 nM; in the assay with HCC1806, 15000 nM.
In the same order, the values of `N#CC1(NS(=O)(=O)c2cc(N3CC[C@H](O)C3)c3cnc(-c4nnc(C(F)(F)F)s4)n3c2)CC1` [Example 239, (S)-N-(1-cyanocyclopropyl)-8-(3-hydroxypyrrolidin-1-yl)-3-(5-(trifluoromethyl)-1,3,4-thiadiazol-2-yl)imidazo[1,5-a]pyridine-6-sulfonamide] are 380 nM and 9790 nM.
For the compound `N#CC1(NS(=O)(=O)c2cc(N3CCN(C(=O)C4CC4(F)F)CC3)c3cnc(-c4nnc(C(F)(F)F)s4)n3c2)CC1` (centres unmarked) [Example 240, N-(1-cyanocyclopropyl)-8-(4-(2,2-difluorocyclopropane-1-carbonyl)piperazin-1-yl)-3-(5-(trifluoromethyl)-1,3,4-thiadiazol-2-yl)imidazo[1,5-a]pyridine-6-sulfonamide], the IC50 on PARG worked out at 13.2 nM; with HCC1806 it was 2440 nM.
Regarding `N#CC1(NS(=O)(=O)c2cc(N3CCN(C(=O)C(F)F)CC3)c3cnc(-c4nnc(C(F)(F)F)s4)n3c2)CC1` [Example 241, N-(1-cyanocyclopropyl)-8-(4-(2,2-difluoroacetyl)piperazin-1-yl)-3-(5-(trifluoromethyl)-1,3,4-thiadiazol-2-yl)imidazo[1,5-a]pyridine-6-sulfonamide], the IC50 against PARG turned out to be 24 nM; in the assay on HCC1806 it was 4180 nM.
With `CC1(O)CC2(CCN(c3cc(S(=O)(=O)NC4(C#N)CC4)cn4c(-c5nnc(C(F)(F)F)s5)ncc34)CC2)C1` [Example 242, N-(1-cyanocyclopropyl)-8-(2-hydroxy-2-methyl-7-azaspiro[3.5]nonan-7-yl)-3-(5-(trifluoromethyl)-1,3,4-thiadiazol-2-yl)imidazo[1,5-a]pyridine-6-sulfonamide], the IC50 at PARG is 52.5 nM; with HCC1806, 2980 nM.
Regarding `COc1ccc(C(=O)/C=C/C(=O)N2CCN(c3cc(S(=O)(=O)NC4CC4)cn4c(-c5nnc(C(F)(F)F)s5)ncc34)CC2)cc1` [Example 243, (E)-N-cyclopropyl-8-(4-(4-(4-methoxyphenyl)-4-oxobut-2-enoyl)piperazin-1-yl)-3-(5-(trifluoromethyl)-1,3,4-thiadiazol-2-yl)imidazo[1,5-a]pyridine-6-sulfonamide], the results for the IC50 on PARG and in the assay with HCC1806 were 871 nM and 200 nM, respectively.
Take `N#CC1(NS(=O)(=O)c2cc(N3CCN(c4ccccn4)CC3)c3cnc(-c4nnc(C(F)(F)F)s4)n3c2)CC1` [Example 244, N-(1-cyanocyclopropyl)-8-(4-(pyridin-2-yl)piperazin-1-yl)-3-(5-(trifluoromethyl)-1,3,4-thiadiazol-2-yl)imidazo[1,5-a]pyridine-6-sulfonamide]: the IC50 was determined as 75.9 nM at PARG and 9000 nM in the assay on HCC1806.
`CO[C@H]1C[C@H](C(=O)N2CCN(c3cc(S(=O)(=O)NC4(C#N)CC4)cn4c(-c5nnc(C(F)(F)F)s5)ncc34)CC2)C1` [Example 245, N-(1-cyanocyclopropyl)-8-(4-((1r,3r)-3-methoxycyclobutane-1-carbonyl)piperazin-1-yl)-3-(5-(trifluoromethyl)-1,3,4-thiadiazol-2-yl)imidazo[1,5-a]pyridine-6-sulfonamide]: the IC50 at PARG is 28.8 nM; in the assay on HCC1806, 2360 nM.
As for `N#CC1(NS(=O)(=O)c2cc(N3CCNC(=O)C3)c3cnc(-c4nnc(C(F)(F)F)s4)n3c2)CC1` [Example 248, N-(1-cyanocyclopropyl)-8-(3-oxopiperazin-1-yl)-3-(5-(trifluoromethyl)-1,3,4-thiadiazol-2-yl)imidazo[1,5-a]pyridine-6-sulfonamide], the IC50 against PARG worked out at 692 nM; in the assay on HCC1806, 6440 nM.
In the case of `CN(C)CCC(=O)N1CCN(c2cc(S(=O)(=O)NC3(C#N)CC3)cn3c(-c4nnc(C(F)(F)F)s4)ncc23)CC1` [Example 249, N-(1-cyanocyclopropyl)-8-(4-(3-(dimethylamino)propanoyl)piperazin-1-yl)-3-(5-(trifluoromethyl)-1,3,4-thiadiazol-2-yl)imidazo[1,5-a]pyridine-6-sulfonamide], the IC50 against PARG worked out at 115 nM; in the assay on HCC1806, 7320 nM.
Take `CN(C)CC(=O)N1CCN(c2cc(S(=O)(=O)NC3(C#N)CC3)cn3c(-c4nnc(C(F)(F)F)s4)ncc23)CC1` [Example 250, N-(1-cyanocyclopropyl)-8-(4-(dimethylglycyl)piperazin-1-yl)-3-(5-(trifluoromethyl)-1,3,4-thiadiazol-2-yl)imidazo[1,5-a]pyridine-6-sulfonamide]: the results for the concentration for half-maximal inhibition (IC50) at PARG and with HCC1806 were 38 nM and 1280 nM, respectively.
Consider `CN1CC(C(=O)N2CCN(c3cc(S(=O)(=O)NC4(C#N)CC4)cn4c(-c5nnc(C(F)(F)F)s5)ncc34)CC2)C1` [Example 252, N-(1-cyanocyclopropyl)-8-(4-(1-methylazetidine-3-carbonyl)piperazin-1-yl)-3-(5-(trifluoromethyl)-1,3,4-thiadiazol-2-yl)imidazo[1,5-a]pyridine-6-sulfonamide], for which the IC50 at PARG is 16.6 nM; in the assay on HCC1806 it was 2000 nM.
In the same order, the values of `N#CC1(NS(=O)(=O)c2cc(N3CCN(C(=O)CCC(=O)O)CC3)c3cnc(-c4nnc(C(F)(F)F)s4)n3c2)CC1` [Example 253, 4-(4-(6-(N-(1-cyanocyclopropyl)sulfamoyl)-3-(5-(trifluoromethyl)-1,3,4-thiadiazol-2-yl)imidazo[1,5-a]pyridin-8-yl)piperazin-1-yl)-4-oxobutanoic acid] are 57.5 nM and 1000 nM.
